According to US6703418B2, “Appetite stimulation and induction of weight gain in patients suffering from symptomatic HIV infection” (Unimed Pharmaceuticals, Inc., priority 1991, dated 2004):

Assays:
[1] = children and adolescents 6-19 years of age; cited from earlier work
[2] = oral; cancer chemotherapy patients; crossover; cited from earlier work
[3] = cancer chemotherapy patients; compared with prochlorperazine; cited from earlier work
[4] = Example I: ten symptomatic HIV patients treated with delta-9-tetrahydrocannabinol as dronabinol, weight change; type: in vivo, human
Method: Soft gelatin capsules were filled with delta-9-tetrahydrocannabinol in sesame oil (dronabinol). Capsules were filled with 2.5 mg delta-9-tetrahydrocannabinol per capsule or 5 mg delta-9-tetrahydrocannabinol per capsule.
Ten symptomatic HIV patients were treated with delta-9-tetrahydrocannabinol. […] The infectious complications which they had represent the spectrum of those usually seen in a symptomatic HIV-infected population.
Most of the patients had received or were on antiviral therapy, primarily zidovudine (azidothymidine). Two had previously received and one was receiving megesterol acetate as well. Patients received delta-9-tetrahydrocannabinol as dronabinol (delta-9-tetrahydrocannabinol in sesame oil in soft gelatin capsules), usually at a dose of 2.5 mg, for one to five months. Treatment continued for most of the patients at the time of this analysis. The dose varied. The patients were instructed to take medication up to four times daily as needed; many took it somewhat less often.
Initially, patients were losing a median of 0.93 kg/mo. On therapy, they gained 0.54 kg/mo. The median difference on versus pre-therapy was 1.92 kg/mo.

[5] = Example II: prospective dose-ranging study of dronabinol in patients with symptomatic HIV infection, weight change and side effects; type: in vivo, human
Method: In a prospective, dose-ranging study, 23 patients with symptomatic HIV infection were treated with dronabinol at a dose of 2.5 mg twice daily to 5.0 mg three times daily. Of these, 13 completed approximately one month on therapy.
At a dose which appears optimal, seven of eight patients completed one month treatment. […] Most of those patients who did experience side effects found them tolerable. […] The median rate of weight loss prior to therapy was 1.62 kg/mo; on therapy, the median weight gain was 1.56 kg/mo. The median improvement in the rate of weight change was 3.06 kg/mo, or approximately 1.5 lbs/wk.

[6] = advanced cancer patients on chemotherapy, versus those not receiving it; cited from earlier work
[7] = cancer patients, open study; cited from earlier work

CCCCCc1cc(O)c2c(c1)OC(C)(C)[C@@H]1CCC(C)=C[C@@H]21 [delta-9-tetrahydrocannabinol]
appetite stimulating effect [1]: Results suggestive of an appetite stimulating effect
subjects reporting an increased food intake [2]: 50%
reported hunger [3]: reported feeling more hungry than patients on prochlorperazine
number of patients who gained weight ([4]; of ten symptomatic HIV patients): Seven patients gained weight
number of patients with a decrease in weight loss ([4]; of ten symptomatic HIV patients, besides those who gained weight): two others had a decrease in weight loss
median difference in rate of weight change, on versus pre-therapy ([4]; ten symptomatic HIV patients, usually 2.5 mg oral, one to five months): 1.92 kg/mo
median weight gain on therapy ([4]; ten symptomatic HIV patients, usually 2.5 mg oral, up to four times daily as needed, one to five months, pre-therapy median loss 0.93 kg/mo): 0.54 kg/mo
number of patients who gained weight ([5]; all doses, 2.5 mg twice daily to 5.0 mg three times daily, of 13 patients completing about one month on therapy): seven gained weight
side effects ([5]; dose which appears optimal): most patients did not experience side effects
median improvement in the rate of weight change ([5]; dose which appears optimal, converted from kg/mo): approximately 1.5 lbs/wk
number of patients who gained weight ([5]; dose which appears optimal, of seven patients completing one month): five of the seven patients gained weight
median improvement in the rate of weight change ([5]; dose which appears optimal, on therapy versus prior to therapy): 3.06 kg/mo
median weight gain on therapy ([5]; dose which appears optimal, pre-therapy median loss 1.62 kg/mo): 1.56 kg/mo
weight maintenance [6]: maintained their weight better
appetite [7]: appetite increases
rate of weight loss [7]: lessening of the rate of weight loss
